Reference: EPA's ToxRefDB 2

What was measured:
dog = details: Chronic toxicity; beagle; Oral; Feed; dose end: 52 week; group: systemic; systemic / clinical chemistry / albumin / albumin + systemic / clinical chemistry / calcium / calcium + systemic / clinical chemistry / …
rabbit [1] = details: Prenatal developmental toxicity study, new zealand white, Dermal, Topical, dose end: 18 GD
rabbit [2] = details: Prenatal developmental toxicity study, new zealand white, Oral, Capsule, dose end: 18 GD
rat [3] = details: Prenatal developmental toxicity study, fischer, Oral, Gavage/Intubation, dose end: 15 GD
rat [4] = details: Subchronic oral toxicity in rodents, other, Feed, dose end: 13 week, group: systemic, systemic / clinical chemistry / urea nitrogen / urea
rat [5] = details: Subchronic oral toxicity in rodents, Feed, dose end: 13 week, group: systemic
mouse = details: Subchronic oral toxicity in rodents, cd1, Feed, dose end: 13 week, group: systemic
[6] = group: developmental, developmental / developmental malformation / bone / supernumerary + developmental / developmental malformation / bone / unossified + …
[7] = group: maternal, systemic / in life observation / body weight / body weight gain
[8] = group: developmental, developmental / developmental malformation / bone / supernumerary + developmental / developmental malformation / gallbladder / [other] + …
[9] = group: maternal, reproductive / reproductive performance / aborted / aborted + reproductive / reproductive performance / postimplantation loss / …
[10] = group: maternal, systemic / in life observation / body weight / body weight + systemic / in life observation / body weight / body weight gain + systemic / in…
[11] = group: developmental, developmental / developmental malformation / bone / ossification sites + developmental / developmental malformation / bone / supernumerary
[12] = group: maternal, systemic / in life observation / body weight / body weight
[13] = systemic / in life observation / body weight / body weight
[14] = systemic / in life observation / body weight / body weight + systemic / clinical chemistry / urea nitrogen / urea + systemic / urinalysis / …
[15] = systemic / in life observation / body weight / body weight + systemic / organ weight / liver / relative to body weight

SMILES: CCNc1nc(Cl)nc(NC(C)(C)C#N)n1 [Cyanazine]
- LEL (dog): 3.02 mg/kg/day
- LOAEL (dog): 3.02 mg/kg/day
- NEL (dog): 0.72 mg/kg/day
- NOAEL (dog): 0.72 mg/kg/day
- LOAEL (rabbit [1]; group: developmental, developmental / developmental malformation / bone / supernumerary + developmental / developmental malformation / bone / unossified): 955 mg/kg/day
- NEL (rabbit [1]; [6]): 286 mg/kg/day
- NOAEL (rabbit [1]; [6]): 573 mg/kg/day
- LEL (rabbit [1]; group: developmental, systemic / in life observation / body weight / fetal weight): 573 mg/kg/day
- LEL (rabbit [1]; [7]): 96 mg/kg/day
- LOAEL (rabbit [1]; [7]): 96 mg/kg/day
- NEL (rabbit [1]; [7]): < 96 mg/kg/day
- NOAEL (rabbit [1]; [7]): < 96 mg/kg/day
- LOAEL (rabbit [2]; group: developmental, developmental / developmental malformation / bone / absent + developmental / developmental malformation / bone / supernumerary): 2 mg/kg/day
- NOAEL (rabbit [2]; group: developmental, developmental / developmental malformation / bone / absent + developmental / developmental malformation / bone / supernumerary + …): 1 mg/kg/day
- LEL (rabbit [2]; [8]): 1 mg/kg/day
- NEL (rabbit [2]; [8]): < 1 mg/kg/day
- LOAEL (rabbit [2]; [9]): 2 mg/kg/day
- NOAEL (rabbit [2]; [9]): 1 mg/kg/day
- LEL (rabbit [2]; [10]): 1 mg/kg/day
- NEL (rabbit [2]; [10]): < 1 mg/kg/day
- LEL (rat [3]; [11]): 5 mg/kg/day
- LOAEL (rat [3]; [11]): 5 mg/kg/day
- NEL (rat [3]; [11]): < 5 mg/kg/day
- NOAEL (rat [3]; [11]): < 5 mg/kg/day
- LEL (rat [3]; [12]): 5 mg/kg/day
- LOAEL (rat [3]; [12]): 5 mg/kg/day
- NEL (rat [3]; [12]): < 5 mg/kg/day
- NOAEL (rat [3]; [12]): < 5 mg/kg/day
- LEL (rat [4]): 0.075 mg/kg/day
- LOAEL (rat [4]): 0.075 mg/kg/day
- NEL (rat [4]): < 0.075 mg/kg/day
- NOAEL (rat [4]): < 0.075 mg/kg/day
- LOAEL (rat [5]; [13]): 0.005 mg/kg/day
- NOAEL (rat [5]; [13]): < 0.005 mg/kg/day
- LEL (rat [5]; [14]): 0.005 mg/kg/day
- NEL (rat [5]; [14]): < 0.005 mg/kg/day
- LOAEL (mouse; [13]): 75 mg/kg/day
- LEL (mouse; [15]): 75 mg/kg/day
- NEL (mouse; [15]): 7.5 mg/kg/day
- NOAEL (mouse; [15]): 7.5 mg/kg/day
